Values joined by “and” are separate entries in the source; they are usually repeats but may differ in a detail not shown here. Identical values can stand only once.
Experiments:
[1] = Crystal; for vapor or sublimation pressure: Calculated from knudsen effusion weight loss; for Normal melting temperature: DTA
[2] = Molar enthalpy of transition or fusion; conditions: Crystal; DSC

CC(=O)Oc1cccc(C(=O)O)c1 [3-acetoxybenzoic acid]
[1]
Conditions	vapor or sublimation pressure
344.16 K	0.000129 kPa and 0.000124 kPa and 0.000123 kPa
346.15 K	0.000158 kPa and 0.000163 kPa and 0.000157 kPa
348.2 K	0.000198 kPa and 0.000199 kPa and 0.000205 kPa
350.13 K	0.000251 kPa and 0.00025 kPa and 0.000257 kPa
353.17 K	0.000355 kPa and 0.000357 kPa and 0.00037 kPa
356.21 K	0.000497 kPa and 0.000499 kPa and 0.00051 kPa
358.16 K	0.000631 kPa and 0.000652 kPa
360.17 K	0.000813 kPa and 0.00081 kPa
362.16 K	0.000967 kPa and 0.000966 kPa and 0.001004 kPa

Conditions	Molar enthalpy of transition or fusion [kcal/mol]	Normal melting temperature [°C]
[1]	–	131.61
[2]	6.28	–

CC(=O)Nc1cccc(C(=O)O)c1 [3-(acetylamino)benzoic acid]
[1]
Conditions	vapor or sublimation pressure
423.22 K	0.000156 kPa
425.28 K	0.000193 kPa and 0.000189 kPa
427.09 K	0.000223 kPa and 0.000219 kPa
429.23 K	0.000279 kPa and 0.000283 kPa
431.28 K	0.000336 kPa and 0.000341 kPa
433.24 K	0.00041 kPa and 0.000419 kPa
435.1 K	0.000495 kPa and 0.000496 kPa
437.29 K	0.000619 kPa and 0.000621 kPa
439.23 K	0.000751 kPa and 0.000744 kPa
441.1 K	0.000886 kPa and 0.000907 kPa

Conditions	Molar enthalpy of transition or fusion [kcal/mol]	Normal melting temperature [°C]
[1]	–	249.04
[2]	10.1	–

CC(=O)Nc1ccccc1C(=O)O [2-acetamidobenzoic acid]
[1]
Conditions	vapor or sublimation pressure
367.17 K	8.3e-05 kPa
369.28 K	0.000109 kPa and 0.000106 kPa and 0.000108 kPa
371.16 K	0.000128 kPa
373.16 K	0.00016 kPa and 0.000163 kPa
375.26 K	0.000207 kPa and 0.00021 kPa
377.16 K	0.000248 kPa and 0.000255 kPa and 0.000258 kPa
379.19 K	0.000305 kPa and 0.000303 kPa and 0.000308 kPa
381.29 K	0.000385 kPa and 0.000373 kPa and 0.000378 kPa
383.16 K	0.000438 kPa
385.15 K	0.000577 kPa and 0.000561 kPa and 0.000574 kPa
387.26 K	0.000697 kPa and 0.000711 kPa and 0.00078 kPa
389.15 K	0.000829 kPa and 0.00084 kPa

Conditions	Molar enthalpy of transition or fusion [kcal/mol]	Normal melting temperature [°C]
[1]	–	181.96
[2]	7.01	–

CC(=O)Oc1ccccc1C(=O)O [2-acetoxybenzoic acid]
[1]
Conditions	vapor or sublimation pressure
341.11 K	0.00012 kPa and 0.000119 kPa
343.24 K	0.000147 kPa and 0.000158 kPa
345.28 K	0.000194 kPa and 0.000203 kPa
347.1 K	0.00023 kPa and 0.000238 kPa
349.24 K	0.00029 kPa and 0.000305 kPa
351.27 K	0.000378 kPa and 0.000387 kPa
353.1 K	0.000478 kPa and 0.000471 kPa
355.28 K	0.000599 kPa and 0.000643 kPa
357.27 K	0.000744 kPa and 0.000796 kPa
359.23 K	0.00089 kPa and 0.000966 kPa
361.11 K	0.001165 kPa

Conditions	Molar enthalpy of transition or fusion [kcal/mol]	Normal melting temperature [°C]
[1]	–	134.23
[2]	8.09	–
